Results from patent US20250235427A1, “5-METHOXY-N,N-[…][…] THE TREATMENT OF SOCIAL/EMOTIONAL […] DETACHMENT” (GH RESEARCH IRELAND LIMITED, priority 2022, published 2025).

Tested on: patients with postpartum depression (PPD)
Test: Clinical trial, inhaled 5-MeO-DMT individualized dosing regimen in postpartum depression (one patient so far)
Protocol: The single-arm, open-label clinical trial will involve 15 adult female patients with clinically diagnosed postpartum depression (PPD).
The second dose (12 mg) will only be administered if: • a. […] The 6 mg dose was safe and well-tolerated according to the investigator, • c. Any psychoactive effects (PsE) of the prior dose have subsided, and • d. Pre-dose vital parameters and forced expiratory volume in one second (FEV1) are in normal range, or if outside of the normal range, are not clinically significant according to the investigator. • 3. Similarly, a third dose (18 mg) will only be administered if: • a. […] The 12 mg dose was safe and well-tolerated according to the investigator, and • c. Any PsE of the prior dose have subsided, and • d. Pre-dose vital parameters and forced expiratory volume in one second (FEV1) are in normal range, or if outside of the normal range, are not clinically significant according to the investigator.
The patients will be assessed for a peak psychedelic experience (based on a patient-scored visual analogue scale, the PE scale), sedation, and other endpoints after dosing. Follow-up visits are planned for Day 1, and Day 7 after the dosing day.

## COc1ccc2[nH]cc(CCN(C)C)c2c1 [5-MeO-DMT]
  standard criteria for MADRS response (at least 50% improvement) and MADRS remission (total score equal or less than 10): fulfilled
  tolerability of the inhalation procedure: well tolerated with no inhalation-related adverse events
2 hr, baseline 0
  MADRS Concentration Difficulties improvement: 0
  MADRS Concentration Difficulties score: 0
  MADRS Reduced appetite improvement: 0
  MADRS Reduced appetite score: 0
  MADRS Suicidal Thoughts improvement: 0
  MADRS Suicidal Thoughts score: 0
2 hr, baseline 3
  MADRS Inability to Feel improvement: 3
  MADRS Inability to Feel score: 0
  MADRS Lassitude improvement: 3
  MADRS Lassitude score: 0
2 hr, baseline 4
  MADRS Pessimistic Thoughts improvement: 4
  MADRS Pessimistic Thoughts score: 0
  MADRS Reported sadness improvement: 4
  MADRS Reported sadness score: 0
2 hr, baseline 5
  MADRS Apparent sadness improvement: 5
  MADRS Apparent sadness score: 0
  MADRS Inner Tension improvement: 5
  MADRS Inner Tension score: 0
  MADRS Reduced Sleep improvement: 0
  MADRS Reduced Sleep score: 5
Day 0
  reported adverse events (cramping left abdominal pain and headache): mild, short-lasting and resolved spontaneously
Day 1, baseline 0
  MADRS Concentration Difficulties improvement: 0
  MADRS Concentration Difficulties score: 0
  MADRS Reduced appetite improvement: 0
  MADRS Reduced appetite score: 0
  MADRS Suicidal Thoughts improvement: 0
  MADRS Suicidal Thoughts score: 0
Day 1, baseline 1
  BPRS Blunted affect improvement: 0
  BPRS Blunted affect score: 1
  BPRS Conceptual disorganization improvement: 0
  BPRS Conceptual disorganization score: 1
  BPRS Disorientation improvement: 0
  BPRS Disorientation score: 1
  BPRS Grandiosity improvement: 0
  BPRS Grandiosity score: 1
  BPRS Hallucinatory behaviour improvement: 0
  BPRS Hallucinatory behaviour score: 1
  BPRS Hostility improvement: 0
  BPRS Hostility score: 1
  BPRS Mannerisms and Posturing improvement: 0
  BPRS Mannerisms and Posturing score: 1
  BPRS Motor retardation improvement: 0
  BPRS Motor retardation score: 1
  BPRS Suspiciousness improvement: 0
  BPRS Suspiciousness score: 1
  BPRS Uncooperativeness improvement: 0
  BPRS Uncooperativeness score: 1
  BPRS Unusual Thought Content improvement: 0
  BPRS Unusual Thought Content score: 1
Day 1, baseline 2
  BPRS Excitement improvement: 1
  BPRS Excitement score: 1
Day 1, baseline 3
  MADRS Inability to Feel improvement: 3
  MADRS Inability to Feel score: 0
  MADRS Lassitude improvement: 3
  MADRS Lassitude score: 0
Day 1, baseline 4
  MADRS Pessimistic Thoughts improvement: 4
  MADRS Pessimistic Thoughts score: 0
  MADRS Reported sadness improvement: 4
  MADRS Reported sadness score: 0
Day 1, baseline 5
  BPRS Emotional withdrawal improvement: 4
  BPRS Emotional withdrawal score: 1
  MADRS Apparent sadness improvement: 5
  MADRS Apparent sadness score: 0
  MADRS Inner Tension improvement: 5
  MADRS Inner Tension score: 0
  MADRS Reduced Sleep improvement: 5
  MADRS Reduced Sleep score: 0
Day 1, baseline 6
  BPRS Depressive Mood improvement: 5
  BPRS Depressive Mood score: 1
  BPRS Guilt feelings improvement: 5
  BPRS Guilt feelings score: 1
  BPRS Somatic Concern improvement: 5
  BPRS Somatic Concern score: 1
  BPRS Tension improvement: 5
  BPRS Tension score: 1
Day 1, baseline 7
  BPRS Anxiety improvement: 6
  BPRS Anxiety score: 1
Day 7, Day 0 score 0
  BIMF item 2 (I feel rested) score: 2
  BIMF item 19 (As time goes on, I am getting better at taking care of my baby) score: 1
Day 7, Day 0 score 2
  BIMF item 18 (Anxiety or worry often interferes with my mothering ability) score: 5
Day 7, Day 0 score 4
  BIMF item 13 (I am taking good care of my physical needs) score: 5
Day 7, Day 0 score 5
  BIMF item 4 (My baby and I understand each other) score: 5
  BIMF item 5 (I am able to relax and enjoy time with my baby) score: 6
  BIMF item 9 (I am getting enough encouragement from other people) score: 6
  BIMF item 10 (I trust my own feelings (instincts) when it comes to taking care of my baby) score: 6
  BIMF item 15 (My baby and I are getting into a routine) score: 6
  BIMF item 17 (I am able to take care of my baby and my other responsibilities) score: 5
Day 7, Day 0 score 6
  BIMF item 1 (I am a good mother) score: 6
  BIMF item 3 (I am comfortable with the way I've chosen to feed my baby) score: 6
  BIMF item 6 (There are people in my life that I can trust to care for my baby when I need a break) score: 6
  BIMF item 8 (I am getting enough adult interaction) score: 6
  BIMF item 12 (I am taking good care of my baby's physical needs) score: 6
  BIMF item 14 (I make good decisions about my baby's health and well being) score: 6
  BIMF item 20 (I am satisfied with the job I am doing as a new mother) score: 5
Day 7, baseline 0
  MADRS Concentration Difficulties improvement: 0
  MADRS Concentration Difficulties score: 0
  MADRS Reduced appetite improvement: 0
  MADRS Reduced appetite score: 0
  MADRS Suicidal Thoughts improvement: 0
  MADRS Suicidal Thoughts score: 0
Day 7, baseline 1
  BPRS Blunted affect improvement: 0
  BPRS Blunted affect score: 1
  BPRS Conceptual disorganization improvement: 0
  BPRS Conceptual disorganization score: 1
  BPRS Disorientation improvement: 0
